Measured values published in PubChem BioAssay (NCI).
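Five concentrations, 48 hours, 96-well plates. Here, GI50 denotes the concentration required for 50% inhibition of growth. The concentration for full growth arrest is given as TGI.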

What was measured:
Assay in all cases: NCI-60 cell line screen, 48 h
HCT-116 colon = test system: HCT-116 colon
UACC-257 melanoma = test system: UACC-257 melanoma
SK-OV-3 ovarian = test system: SK-OV-3 ovarian
SF-295 CNS = test system: SF-295 CNS
NCI-H460 lung = test system: NCI-H460 lung
OVCAR-4 ovarian = test system: OVCAR-4 ovarian
ACHN renal = test system: ACHN renal
SW-620 colon = test system: SW-620 colon
M14 melanoma = test system: M14 melanoma
HCT-15 colon = test system: HCT-15 colon

| Compound | TGI (HCT-116 colon) | TGI (UACC-257 melanoma) | TGI (SK-OV-3 ovarian) | TGI (SF-295 CNS) | TGI (NCI-H460 lung) | TGI (OVCAR-4 ovarian) | TGI (ACHN renal) | TGI (SW-620 colon) | TGI (M14 melanoma) | TGI (HCT-15 colon) | GI50 (HCT-116 colon) | GI50 (UACC-257 melanoma) | GI50 (SK-OV-3 ovarian) | GI50 (SF-295 CNS) | GI50 (NCI-H460 lung) | GI50 (OVCAR-4 ovarian) | GI50 (ACHN renal) | GI50 (SW-620 colon) | GI50 (M14 melanoma) | GI50 (HCT-15 colon) |
| --- | --- | --- | --- | --- | --- | --- | --- | --- | --- | --- | --- | --- | --- | --- | --- | --- | --- | --- | --- | --- |
| Cc1cc(=O)oc2cc(OC(=O)N(CCCl)CCCl)ccc12 | > 100 µM | > 100 µM | > 100 µM | > 100 µM | > 100 µM | > 100 µM | > 100 µM | > 100 µM | > 100 µM | > 100 µM |  |  |  |  |  |  |  |  |  |  |
| COc1cc(/C=C2\CC3C4CC=C5C[C@@H](O)CC[C@]5(C)C4CC[C@]3(C)C2=O)ccc1OCCCn1ccnc1 (some centres undefined) | 33.4 µM | 35.3 µM | > 100 µM | 27.5 µM | 44 µM | > 100 µM | 24.7 µM | 52.9 µM | 33.3 µM | 31.3 µM | 16.1 µM | 15.8 µM | 29.1 µM | 13.4 µM | 18.6 µM | 41.5 µM | 11.2 µM | 24.4 µM | 15.2 µM | 10.2 µM |
| CCOC(=O)C1=C(Nc2ccc(Cl)c(Cl)c2)OC/C1=N\NC(=O)Cc1ccccc1 | > 100 µM | > 100 µM | > 100 µM | > 100 µM | > 100 µM | > 100 µM |  | > 100 µM | > 100 µM |  |  |  |  |  |  |  |  |  |  |  |
| COc1cc(C2c3cc4c(cc3[C@@H](N(C)C)[C@H]3COC(=O)C23)OCO4)cc(OC)c1O (some centres undefined) | > 100 µM | > 100 µM | > 100 µM |  | > 100 µM | > 100 µM | > 100 µM | > 100 µM | > 100 µM | > 100 µM |  |  |  |  |  |  |  |  |  |  |
| CC1(O)CCC2(C)C(=O)C1(C)CCC21OCCO1 (centres undefined) |  | > 100 µM | > 100 µM | > 100 µM | > 100 µM |  | > 100 µM | > 100 µM | > 100 µM | > 100 µM |  |  |  |  |  |  |  |  |  |  |
| CN1C(=O)C2C=CC1C1CCC2N(C)C1=O (centres undefined) | > 100 µM | > 100 µM | > 100 µM | > 100 µM |  | > 100 µM |  | > 100 µM | > 100 µM | > 100 µM |  |  |  |  |  |  |  |  |  |  |
| COC(=O)[C@]1(C)C(OC)=CC(=O)C2C1[C@H]1CCC[C@@H]21 (some centres undefined) | > 100 µM | > 100 µM | > 100 µM | > 100 µM | > 100 µM |  | > 100 µM |  | > 100 µM | > 100 µM |  |  |  |  |  |  |  |  |  |  |
| O=C(O)Cc1ccccc1CCc1ccccc1Cl | > 100 µM | > 100 µM | > 100 µM | > 100 µM | > 100 µM | > 100 µM |  | > 100 µM | > 100 µM | > 100 µM |  |  |  |  |  |  |  |  |  |  |
| C/C=C(/C)c1cnc(CC(C)C)c(=O)[nH]1 | > 100 µM | > 100 µM | > 100 µM | > 100 µM | > 100 µM | > 100 µM | > 100 µM | > 100 µM |  | > 100 µM |  |  |  |  |  |  |  |  |  |  |
| CC[C@H](Nc1nc(N)nc(C2CC2)c1C#N)c1nc2cccc(NCc3ccc(C(=O)NO)cc3)c2c(=O)n1-c1ccccc1 | 2.71 µM | 6.16 µM | 4.38 µM |  | 3.79 µM | > 100 µM | 4.58 µM | 4.81 µM | 4.66 µM | 6.96 µM | 1.25 µM | 2.05 µM | 1.9 µM |  | 1.7 µM | 2.6 µM | 1.85 µM | 1.73 µM | 2.02 µM | 2.05 µM |
| CCN(CC)CCOc1c(OC)c(Br)cc2c(C)c(C(=O)OC)oc12 | 3.15 µM | 4.29 µM | 4.1 µM | 2.99 µM | 3.75 µM |  | 2.08 µM | 2.04 µM | 4.4 µM | 2.46 µM | 1.17 µM | 1.53 µM | 1.29 µM | 1.18 µM | 1.31 µM |  | 0.899 µM | 0.802 µM | 1.18 µM | 0.864 µM |
| O=c1cc(-c2ccccn2)[nH]c2cc(F)ccc12 | > 100 µM | > 100 µM | > 100 µM | > 100 µM | > 100 µM | > 100 µM | > 100 µM | > 100 µM | > 100 µM |  |  |  |  |  |  |  |  |  |  |  |
| CS(=O)(=O)NNS(=O)(=O)c1ccc(Cl)cc1 | > 100 µM | > 100 µM |  | > 100 µM | > 100 µM | > 100 µM | > 100 µM | > 100 µM | > 100 µM | > 100 µM |  |  |  |  |  |  |  |  |  |  |
| COC(=O)c1ccc(C(=O)OC)c2nc3cc(C)ccc3nc12 |  | > 100 µM | > 100 µM | > 100 µM | > 100 µM | > 100 µM | > 100 µM | > 100 µM | > 100 µM | > 100 µM |  |  |  |  |  |  |  |  |  |  |
| CC(=O)c1cccc(-c2cccc(-c3ccn(CCN4CCOCC4)n3)c2)c1 | > 20 µM | > 20 µM | > 20 µM |  | > 20 µM | > 20 µM | > 20 µM | > 20 µM | > 20 µM | > 20 µM | > 20 µM | > 20 µM | > 20 µM |  | > 20 µM | > 20 µM | > 20 µM | > 20 µM | > 20 µM | > 20 µM |
| C[C@]12CC[C@H]3[C@@H](CC[C@]4(O)C[C@@H](O)CC[C@]34CO)[C@@]1(O)CC[C@@H]2C1=CC(=O)OC1 | 4.31 µM | 12.7 µM | 6.72 µM | 5.27 µM | 1.81 µM |  | 7.08 µM | > 27 µM | 14.5 µM | 4.72 µM |  |  |  |  |  |  |  |  |  |  |
| CC1(C)C(=O)C=CC2(C)C1CC(O)C1(C)C2CCC2(C)C(c3ccoc3)OC(=O)C3OC321 (centres undefined) | 31.7 µM |  | > 100 µM | 53.1 µM | 27.6 µM | 38.4 µM | 30.3 µM | 59.9 µM | > 100 µM | 23.6 µM |  |  |  |  |  |  |  |  |  |  |
| CCCCCCNC(=O)n1cc(F)c(=O)[nH]c1=O | 15.3 µM | 26.4 µM | 91.1 µM |  | 17.7 µM | 39.1 µM | 23 µM | 20.7 µM | 23.9 µM | 28.7 µM | 1.99 µM | 4.22 µM | 11.1 µM |  | 0.564 µM | 14 µM | 4.86 µM | 3.48 µM | 7.77 µM | 4.26 µM |
| COc1ccccc1NC(=O)C1=C(C)NC(C)=C(C(=O)Nc2ccccc2OC)C1c1ccc(N(C)C)cc1 | 74.7 µM | > 100 µM | 84.5 µM | > 100 µM | > 100 µM | 91.2 µM | > 100 µM | > 100 µM | 69.7 µM |  |  |  |  |  |  |  |  |  |  |  |
| COC(=O)[C@]1(C)CCC[C@@]2(C)[C@@H]3C[C@@H]4[C@H]5C[C@@]3(CC[C@@H]21)C[C@@]45C | 45.2 µM | 28.8 µM | 27.8 µM | 28.5 µM |  | 26.7 µM | 29.2 µM | 62.6 µM | 38.8 µM | 29.7 µM |  |  |  |  |  |  |  |  |  |  |
